Results: patent US10154970B2, “Methods for immunomodulation of cancer and infectious disease therapy” (The Regents of the University of California, priority 2014, dated 2018)

Tests used:
IFN-γ [1] = experiment: Example 6: IFN-γ ELISpot response to BP25 peptide in allograft-bearing mice; type: in vivo, C57BL/6 wild type mice; conditions: Day 28, TRIP 100 mg/kg + PV 100 μg
Method: IFN-γ immune response to scrambled and BP25 peptides following treatment with control (n=5), TRIP 100 mg/kg (n=6), PV 100 μg (n=6) and the TRIP+PV (n=6) combination. Each of four weekly 100 μg injections of peptide vaccine (PV) was preceded by three daily oral doses of TRIP. All mice were implanted with breast cancer allografts on Day 0, and spleens were collected for enzyme-linked immunosorbent spot (ELISpot) analysis on Day 28 following four weeks of treatment. The BP25 peptide is a 25-mer and the target antigen of the PV, while the scrambled peptide is a control peptide containing the same 25 amino acids in a scrambled arrangement.
On Day 0 of the study, all 32 mice were subcutaneously implanted with 1.0×10^6 mouse breast cancer cells expressing the PV target antigen (BP25). Two days later, mice began a three-day regimen of once daily 100 mg/kg TRIP administered orally. On Day 5, mice were administered their first weekly 100 μg dose of PV by subcutaneous injection. This treatment schedule was repeated for a total of four weeks. Tumor growth was assessed twice weekly. All mice were euthanized on Day 28 for the collection of serum and spleens to assess immune response to treatment. Immune response was assessed by performing IFN-γ ELISpot.

[2] = system: regulatory T cells (Tregs); experiment: Experiment 5: regulatory T cells (FoxP3+/CD4+) by flow cytometry; type: in vivo, human MUC1.Tg C57BL/6 mice; conditions: TRIP 100 mg/kg or letrozole 0.8 mg/kg daily oral 14 days
Method: (§1) A total of 32 female human MUC1.Tg C57BL/6 mice, starting at approximately six weeks of age, were treated with urethane as described (Wurz G T. et al., J. Transl. Med., 11:64 (2013)). Two weeks following the final dose of urethane (Week 17), the mice were randomized into four treatment groups of approximately equal average weight (n=8, all groups): Control (no treatment); TRIP (i.e., ospemifene) 100 mg/kg; estradiol 25 μg/kg; and letrozole 0.8 mg/kg. TRIP and letrozole were prepared in DMSO and peanut oil as described above in Experiment 2 and administered daily for 14 days by oral gavage (100 μL). Estradiol was dissolved in 100% ethanol, diluted in PBS to achieve the desired concentration, and then administered daily for 14 days by s.c. injection at rotating sites using a 25-gauge needle. In Week 19, the study was terminated, 24 hours after the last treatments, and serum and spleens were collected for surface marker and Treg analyses.
(§2) After two weeks of treatment, lymphocytes were isolated from spleen. T-cell surface markers (CD4, CD8, PD-1, CD28) and regulatory T cells (Tregs) were analyzed by flow cytometry.

IFN-γ [3] = conditions: at 20 weeks (30 days), 5-mg/kg TRIP dose level
Method: Average serum IFN-γ concentrations following daily oral TRIP treatment for 30 (Week 20), 60 (Week 24), and 90 (Week 28) days at the indicated doses (mg/kg). Serum was analyzed by multiplex immunoassay 24 hours after the final TRIP dose at each time point.
(§3) Following induction of lung cancer as described (Wurz G T. et al., J. Transl. Med., 11:64 (2013)), mice were randomized into four treatment groups: Control; and TRIP (i.e., ospemifene) 5, 25, and 50 mg/kg (n=12, all groups). TRIP and control solutions were orally administered by gavage according to treatment group. After 30 days of treatment (Week 20), a total of 16 mice, four from each treatment group, were euthanized, and whole blood was collected by cardiac puncture. The remaining mice continued daily TRIP treatments. An additional 16 mice, four from each treatment group, were euthanized following 60 (Week 24) and 90 (Week 28) days of treatment, and whole blood and livers were collected. Serum samples were subjected to multiplex cytokine analysis for TH1 (IL-2, IL-12, IFN-γ, TNF-α), TH2 (IL-4, IL-5, IL-10, IL-13) and inflammatory cytokines (MIP-1α, IP-10, MIG, IL-1β, IL-6, KC).

IL-4 = system: IL-4
Method: A total of 43 wild type C57BL/6 mice were assigned to four different treatment groups: Control (n=10); and TRIP (i.e., ospemifene) 10, 50, and 100 mg/kg (n=11, all TRIP groups). All mice received a full course of tecemotide (L-BLP25) peptide vaccine (PV) immunotherapy (eight weekly 10 μg doses administered subcutaneously (s.c.) as described in Wurz G T. et al., J. Transl. Med., 11:64 (2013)). During the final 16 days of immunotherapy, mice received daily oral doses of TRIP according to treatment group assignment. TRIP oral dosing solutions were prepared by dissolving an appropriate amount of the drug in pure dimethyl sulfoxide (DMSO) and then adding peanut oil to the desired final concentration (final DMSO concentration was 2%). All doses were administered in a volume of 100 μl using 20-gauge stainless steel oral feeding needles. Control mice were given diluent only. Forty-eight hours following the final dose of PV, all mice were euthanized for the collection of blood for cytokine analysis by multiplex and spleens for assessing immune response by enzyme-linked immunosorbent spot (ELISpot) assay.
Data are expressed as the number of spot forming cells (SFC)/500,000 lymphocytes following exposure to medium (no peptide), scrambled peptide, and BP25 peptide.

[4] = system: T-cell surface markers (CD4, CD8, PD-1, CD28); experiment: Experiment 5: T-cell surface markers of spleen lymphocytes by flow cytometry; type: in vivo, human MUC1.Tg C57BL/6 mice; conditions: TRIP 100 mg/kg or letrozole 0.8 mg/kg daily oral 14 days
Method: FIG. 11. Lymphocyte phenotypes following different hormonal treatments. (A) CD3+CD4+; (B) CD3+CD8+; (C) CD3+CD28+; (D) CD8+CD28+; (E) CD3+PD-1+; and (F) CD8+PD-1+; T cell surface markers were stained with indicated antibodies after […] of TRIP (100 mg/kg), estradiol (E2; 25 μg/kg), and letrozole (0.8 mg/kg) treatments (n=8 all groups).
as §1, §2

[5] = system: pro-inflammatory cytokines (IL-6, IP-10, MIG, IL-1β, KC)
Method: Serum was analyzed by multiplex immunoassay 24 hours following the last dose of TRIP at each time point.
as §3
Terminal serum pro-inflammatory cytokines (IL-6, IP-10, MIG, IL-1β, KC) were analyzed 24 hours after the last dose at each time point (FIG. 7).

IFN-γ [6] = experiment: Experiment 5: serum IFN-γ cytokine analysis; type: in vivo, human MUC1.Tg C57BL/6 mice; conditions: TRIP 100 mg/kg or letrozole 0.8 mg/kg daily oral 14 days
Method: FIG. 13. Effects of TRIP on serum IFN-γ compared to estradiol and letrozole. Serum IFN-γ from untreated control, TRIP (100 mg/kg), estradiol (E2; 25 μg/kg), and letrozole (0.8 mg/kg) groups were analyzed following daily treatment for 14 days (n=8 all groups). **p<0.01, ***p<0.001.
TRIP and letrozole were prepared in DMSO and peanut oil as described above in Experiment 2 and administered daily for 14 days by oral gavage (100 μL). Estradiol was dissolved in 100% ethanol, diluted in PBS to achieve the desired concentration, and then administered daily for 14 days by s.c. injection at rotating sites using a 25-gauge needle. In Week 19, the study was terminated, 24 hours after the last treatments, and serum and spleens were collected for surface marker and Treg analyses.

Compound: OCCOc1ccc(/C(=C(/CCCl)c2ccccc2)c2ccccc2)cc1 [TRIP, Z-2-[4-(4-chloro-1,2-diphenyl-but-1-enyl)-phenoxy]ethanol]
- T cell immune response by ELISpot to the target antigen (BP25), PV in combination with TRIP (IFN-γ [1]): specific IFN-γ responses
- T cell immune response by ELISpot, PV in combination with TRIP compared to PV alone (IFN-γ [1]): increased immune response
- Tregs (FoxP3+/CD4+) compared to estradiol treatment [2]: significantly inhibited
- serum IFN-γ (IFN-γ [3]): elevated
- IL-4 response, PV + 50 mg/kg TRIP vs PV alone (IL-4; TRIP 50 mg/kg daily oral final 16 days + PV): No significant difference
- IL-4 immune response by ELISpot, TRIP combined with PV (IL-4; TRIP 10, 50, 100 mg/kg daily oral final 16 days + 8 weekly 10 μg PV s.c.): decrease with TRIP dose
- expression of surface markers, including CD8 and CD28, vs control [4]: no difference
- pro-inflammatory serum cytokine levels ([5]; TRIP 5, 25, 50 mg/kg daily oral, 30, 60, 90 days, compared to control group): decreasing levels
- serum IL-6 levels, control vs all doses of TRIP ([5]; at 28 weeks (90 days of treatment)): Differences
- serum IFN-γ concentrations compared to estradiol (IFN-γ [6]): significantly increased
